# Patent publication US6610692B1, “Thrombin inhibitors” (Merck & Co., Inc., priority 1998, dated 2003)
# Where two headings read alike, the source gives them in different places.
# Key:
# human α-thrombin = human α-thrombin (Homo sapiens, UniProt P00734); assay: In vitro assay for determining proteinase inhibition: thrombin (sar-PR-pna or Z-GPR-afc substrate); assay type: biochemical
# Description: In vitro Assay for Determining Proteinase Inhibition
# The assays were carried out at 25° C. in 0.05 M TRIS buffer pH 7.4, 0.15 M NaCl, 0.1% PEG. Trypsin assays also contained 1 mM CaCl2.
# Concentrations of stock solutions of Z-GPR-afc were determined from measurements of absorbance at 380 nm of the 7-amino-4-trifluoromethyl coumarin produced upon complete hydrolysis of an aliquot of the stock solution by thrombin.
# Times required to achieve equilibration between enzyme and inhibitor were determined in control experiments. Initial velocities of product formation in the absence (Vo) or presence of inhibitor (Vi) were measured. Assuming competitive inhibition, and that unity is negligible compared Km/[S], [I]/e, and [I]/e (where [S], [I], and e respectively represent the total concentrations, of substrate, inhibitor and enzyme), the equilibrium constant (Ki) for dissociation of the inhibitor from the enzyme can be obtained from the dependence of Vo, Vi on [I] shown in equation 1: […]
# [1] = Table 1, 25° C., 0.05 M TRIS buffer pH 7.4, 0.15 M NaCl, 0.1% PEG, read-out: Inhibitory activity (Ki)
Structure (SMILES),Ki (human α-thrombin; [1]),other results
"Cc1cc2[nH]cnc2cc1CNC(=O)Cn1c(C)cnc(NCCc2ccccn2)c1=O [Example 33, 3-[2-(2-Pyridyl)ethylamino]-6-methyl-1-(5-methylenecarboxamidomethyl-6-methylbenzimidazolyl)-pyrazinone]",,melting point: 175 to 184 °C
Cc1cnc(NCCc2ccccn2)c(=O)n1CC(=O)NCc1ccc2c(cnn2C)c1,> 0.02 µM,
Cc1cc2[nH]cnc2cc1CNC(=O)Cn1c(C)cnc(NCC2(c3ccccn3)CC2)c1=O [drawing 20],< 0.02 µM,
Cc1cc2c(c(=O)n1CC(=O)NCc1ccc3[nH]ccc3c1)NC(=O)[C@H](CC1CCC1)C2,< 0.02 µM,
Cc1cc2c(c(=O)n1CC(=O)NCc1ccc3[nH]ccc3n1)NC(=O)[C@H](CC(C)C)C2,< 0.02 µM,
"Cc1cc2[nH]cnc2cc1CNC(=O)Cn1c(C)cnc(NCC2(c3ccccn3)CC2)c1=O [Example 34, 3-[1-(2-Pyridyl)-cyclopropylmethylamino]-6-methyl-1-(5-methylenecarboxamidomethyl-6-methylbenzimidazolyl)-pyrazinone]",,melting point: 146 to 154 °C
Cc1cnc(NCC(F)(F)c2ccccc2)c(=O)n1CC(=O)NCc1cnc2[nH]cnc2c1,< 0.02 µM,
Cc1cc2c(c(=O)n1CC(=O)NCc1ccc3[nH]ncc3c1)NC(=O)[C@H](CC1CCC1)C2,< 0.02 µM,
Cc1cnc(NCCCCC2CC2)c(=O)n1CC(=O)NCc1cc2cc[nH]c2cn1,< 0.02 µM,
Cc1cnc(NCC(F)(F)c2ccccc2)c(=O)n1CC(=O)NCc1ccc2[nH]ncc2c1,< 0.02 µM,
Cc1nc2cc(CNC(=O)Cn3c(C)cnc(NCC(F)(F)c4ccccc4)c3=O)ccc2[nH]1,> 0.02 µM,
Cc1cnc(NCC(F)(F)c2ccccn2)c(=O)n1CC(=O)NCc1cnc2[nH]cnc2c1,< 0.02 µM,
Cc1cc2c(c(=O)n1CC(=O)NCc1cnc3[nH]ccc3c1)NC(=O)[C@H](CC1CCC1)C2,< 0.02 µM,
Cc1cc(SCC2CCC2)c(N)c(=O)n1CC(=O)NCc1cnc2[nH]cnc2c1,> 0.02 µM,
"Cc1cnc(NCCc2ccccn2)c(=O)n1CC(=O)NCc1ccc2[nH]cc(Cl)c2c1 [Example 35, 3-[2-(2-Pyridyl)ethylamino]-6-methyl-1-(3-chloro-5-methylene-carboxamidomethylindolyl)-pyrazinone]",,melting point: 224 to 226 °C
"Cc1cnc(NCC2(c3ccccn3)CC2)c(=O)n1CC(=O)NCc1ccc2[nH]cnc2c1 [Example 41, 3-[1-(2-Pyridyl)cyclopropylmethylamino]-6-methyl-1-(5-methylenecarboxamidomethyl-benzimidazolyl)-pyrazinone]",,melting point: 134 to 139 °C
Cc1cnc(NCCc2ccccn2)c(=O)n1CC(=O)NCc1cc2c(Cl)c[nH]c2cn1,< 0.02 µM,
Cc1cc2c(c(=O)n1CC(=O)NCc1cc3cc[nH]c3cn1)NC(=O)[C@H](CC1CCC1)C2,< 0.02 µM,
Cc1cc(SCC2CC2)c(N)c(=O)n1CC(=O)NCc1cnc2[nH]cnc2c1,> 0.02 µM,
Cc1cc2c(c(=O)n1CC(=O)NCc1ccc3[nH]ccc3n1)NC(=O)[C@H](CC1CCC1)C2,< 0.02 µM,

Structure (SMILES),Ki (human α-thrombin; [1]),other results
CCC[C@@H]1Cc2cc(C)n(CC(=O)NCc3ccc4[nH]ccc4c3)c(=O)c2NC1=O,< 0.02 µM,
Cc1cnc(NCCc2ccc3c(c2)OCO3)c(=O)n1CC(=O)NCc1ccc2[nH]ccc2c1,< 0.02 µM,
"Cc1cnc(NCC2(c3ccccn3)CC2)c(=O)n1CC(=O)NCc1ccc2[nH]ccc2c1 [Example 39, 3-[1-(2-Pyridyl)cyclopropylmethylamino]-6-methyl-1-(5-methylenecarboxamidomethylindolyl)-pyrazinone]",,melting point: 212 to 215 °C
Cc1cc(SCC2CCC2)c(N)c(=O)n1CC(=O)NCc1ccc2[nH]cnc2c1,< 0.02 µM,
Cc1cc(SCC2CC2)c(N)c(=O)n1CC(=O)NCc1ccc2[nH]cnc2c1,> 0.02 µM,
Cc1cc(SCC2CCC2)c(N)c(=O)n1CC(=O)NCc1ccc2[nH]nc(N)c2c1,> 0.02 µM,
Cc1cnc(NCC(F)(F)c2ccccc2)c(=O)n1CC(=O)NCc1ccc2[nH]nc(N)c2c1,< 0.02 µM,
Cc1cnc(NCC2(c3ccccn3)CC2)c(=O)n1CC(=O)NCc1ccc2[nH]cnc2c1 [drawing 18],< 0.02 µM,
Cc1cnc(NCCc2ccccn2)c(=O)n1CC(=O)NCc1cnc2[nH]ccc2c1,,Ki (human α-thrombin): < 0.02 µM
Cc1cnc(NCC(F)(F)c2ccccn2)c(=O)n1CC(=O)NCc1ccc2[nH]ccc2c1,< 0.02 µM,
Cc1cnc(NCC(F)(F)c2ccccn2)c(=O)n1CC(=O)NCc1ccc2[nH]ccc2n1,< 0.02 µM,
Cc1cnc(NCCc2ccc3c(c2)OCO3)c(=O)n1CC(=O)NCc1ccc2[nH]ncc2c1,< 0.02 µM,
Cc1cc2c(c(=O)n1CC(=O)NCc1ccc3[nH]ccc3n1)NC(=O)[C@H](CC1CC1)C2,< 0.02 µM,
Cc1cnc(NCC(F)(F)CC2CC2)c(=O)n1CC(=O)NCc1ccc2[nH]ccc2n1,< 0.02 µM,
Cc1cnc(NCC2(c3ccccn3)CC2)c(=O)n1CC(=O)NCc1ccc2[nH]ccc2c1 [drawing 16],< 0.02 µM,
Cc1cnc(NCC(F)(F)c2ccccc2)c(=O)n1CC(=O)NCc1ccc2[nH]cnc2c1,< 0.02 µM,
Cc1cnc(NCC(F)(F)c2ccccn2)c(=O)n1CC(=O)NCc1ccc2[nH]cnc2c1,< 0.02 µM,
Cc1cnc(NCC(F)(F)c2ccccn2)c(=O)n1CC(=O)NCc1cc2cc[nH]c2cn1,< 0.02 µM,
"Cc1cnc(NCCc2ccccc2)c(=O)n1CC(=O)NCc1ccc2[nH]cc(Cl)c2c1 [Example 36, 3-(2-Phenethylamino)-6-methyl-1-(3-chloro-5-methylenecarboxamidomethylindolyl)-pyrazinone]",,melting point: 223 to 226 °C

# The next lines start with results.
Ki (human α-thrombin; [1]),Structure (SMILES),other results
> 0.02 µM,Cc1cnc(NCCc2ccccc2)c(=O)n1CC(=O)NCc1ccc2[nH]nnc2c1,
> 0.02 µM,Cc1cnc(NCCc2ccccc2)c(=O)n1CC(=O)NCc1cnc2[nH]nc(N)c2c1,
> 0.02 µM,Cc1cnc(NCCc2ccccc2)c(=O)n1CC(=O)NCc1cnc2[nH]cnc2c1,
> 0.02 µM,Cc1c(CNC(=O)Cn2c(C)cnc(NCCc3ccccc3)c2=O)cnc2[nH]ccc12,
< 0.02 µM,Cc1cnc(NCCc2ccccn2)c(=O)n1CC(=O)NCc1ccc2[nH]ncc2c1,
> 0.02 µM,Cc1noc2ccc(CNC(=O)Cn3c(C)cnc(NCCc4ccccn4)c3=O)cc12,
< 0.02 µM,Cc1cnc(NCCc2ccccc2)c(=O)n1CC(=O)NCc1ccc2[nH]cc(Cl)c2c1 [drawing 39],
> 0.02 µM,Cc1cnc(NCCc2ccccc2)c(=O)n1CC(=O)NCc1ccc2[nH]nc(N)c2c1,
> 0.02 µM,Cc1cnc(NCCc2ccccc2)c(=O)n1CC(=O)NCc1ccc2c(cnn2C)c1,
< 0.02 µM,Cc1cnc(NCCc2ccccc2)c(=O)n1CC(=O)NCc1ccc2[nH]ncc2c1,
< 0.02 µM,Cc1cnc(NCC(F)(F)c2ccccc2)c(=O)n1CC(=O)NCc1cc2cc[nH]c2cn1,
> 0.02 µM,Cc1cc2[nH]cnc2cc1CNC(=O)Cn1c(C)cnc(NCCc2ccccn2)c1=O [drawing 19],
> 0.02 µM,Cc1cnc(NCCc2ccccc2)c(=O)n1CC(=O)NCc1cc2nc[nH]c2cn1,
< 0.02 µM,Cc1cnc(NCCc2cccnc2)c(=O)n1CC(=O)NCc1ccc2[nH]ccc2c1,
< 0.02 µM,Cc1cnc(NCCc2ccccc2)c(=O)n1CC(=O)NCc1cc2c(Cl)c[nH]c2cn1,
> 0.02 µM,Cc1nc2[nH]nnc2cc1CNC(=O)Cn1c(C)cnc(NCCc2ccccc2)c1=O,
< 0.02 µM,Cc1cnc(NCCc2ccccn2)c(=O)n1CC(=O)NCc1ccc2[nH]cc(Cl)c2c1 [drawing 38],
